Laboratory results taken from patent US6436630B1, “Method for testing the toxicity of chemical substances using gastropods” (priority 1998, dated 2002).

Assays:
[1] = test system: foot mucosa of slugs of species Arion; type: in vivo; conditions: in vivo
[2] = test system: foot mucosa of slugs (species Arion); test: Slug mucosal toxicity test, Example 1 (15 min daily treatment, five days); type: in vivo; conditions: in vivo
Excerpt: Initially, the slugs are kept on a culture under controlled conditions of temperature and humidity until they have reached a stable body weight. The purpose of achieving a stable body weight is to improve the reproducibility of the results, particularly as the release of substances from the slugs may conveniently be measured in terms of the body weight thereof. The slugs are then isolated from the culture and placed in a vented plastic box lined with moist paper towel and placed at 95% relative humidity at 20° C. seven days before the start of an experiment. The slugs were not bred in any particular way, i.e. they were wild slugs. It is anticipated that even more accurate and reproducible results can be obtained by selective breeding of the slugs, although as shown by the test results this is not a necessary requirement of the present invention to obtain accurate and useful data.
The test procedure is simple and rapid. The chemical substance to be tested is applied directly to the mucosal membrane of a slug, e.g. to the foot, by placing the slug individually in a petri dish containing the test substance. Slugs treated with phosphate buffered saline are used as a negative control. As a positive control slugs treated with a known toxic substance, benzalkonium chloride, were used.
Because the mucosal epithelium of interest is located at the outside of the slug the effect of substances can be easily observed. […] This can also be simply measured by weighing the petri dish before and after the treatment of the slugs with the chemical substance (with the slugs removed in each case). Additionally an indirect response to epithelial damage caused by a chemical substance may be determined by the reduction of the body weight of the slugs due to the leakage of haemolymphatic fluids through the damaged foot surface.
After the treatment the slugs are transferred individually to a fresh petri dish containing phosphate buffered saline. After a suitable exposure time, e.g. 1 hour the phosphate buffered saline is collected and analysed for the presence of proteins and/or enzymes, e.g. lactate dehydrogenase and/or alkaline phosphatase, or other marker substances released from the foot or epithelium of the slug, for example membrane associated components such as phospholipids or cholesterol. This procedure can be repeated after periods of several hours in order to determine the reversibility of the cell damage caused by the test chemical substance. The concentration or amount of the chemical substance to be tested can be changed and the influence of the concentration can be easily examined. The exposure time can also be changed if required. The slugs can be treated during several successive days in order to investigate the subchronical effect of substances on the foot mucosa.
Seven days before the start of the experiment the slugs were isolated in a plastic box lined with moist paper towel and placed at 95% relative humidity at 20° C. As test substances didecanyol-L-α-phosphatidylcholine (DDPC) and sodium deoxycholate (SDC) were selected. Benzalkonium chloride (1% w/v), SDC (1% w/v) and DDPC (1%, w/v) were prepared in phosphate buffered saline (PBS, pH 7.4). […] During the test the slugs are preferably kept in a generally calm and normal state and are not subjected to mechanical vibrations or mechanical or electrical disturbances which may affect mucus production.
The enzymes (lactate dehydrogenase (LDH) and alkaline phosphatase (ALP)) and total protein released into the PBS were determined. The slugs were weighed before and after the incubation period to determine the body weight changes. The mucus production was measured by weighing the petri dishes before and after the treatment with a test substance. The results are shown in Table 1 and shown graphically in FIGS. 1 to 5.

[3] = test system: foot mucosa of slugs of species Limax; type: in vivo; conditions: in vivo
Method: Slugs of the species Limax are terrestial slugs have lungs and also a small internal shell. As test substances hydroxypropyl-β-cyclodextrin (HPβCD), sodium tauro-24,25-dihdrofiisidate (STDHF) and sodium deoxycholate were selected. Benzalkonium chloride (1% w/v), HPβCD (5% w/v), STDHF (1% w/v) and SDC (1% w/v) were prepared in phosphate buffered saline (PBS, pH 7.4).
The enzymes lactate dehydrogenase (LDH) and alkaline phosphatase (ALP) and total protein released into the PBS were determined. The change in body weight and mucus production caused by the treatment were examined.

[4] = test system: foot mucosa of slugs of species Arion; test: Slug mucosal toxicity test, Example 2 (15 min daily treatment, four days); conditions: for % WL, weight loss as reduction in body weight caused by the 15 minutes of treatment / % MP, mucus production as % of the body weight at the start of the day before the treatment: 1% w/v in PBS; for % MP, mucus production as % of the body weight at the start of the day before the treatment / ALP released into PBS / LDH released into PBS / Protein released into PBS: 15 min; for ALP released into PBS / LDH released into PBS / Protein released into PBS: 1% w/v, total mean of 3 samples/day per slug
Method: As test substance a β-blocking agent propranolo HCl (1% w/v) was used. Benzalkonium chloride (1% w/v) and Propranolol (1% w/v) were prepared in PBS (pH 7.4). The slugs were daily incubated during 15 min with the test solution during four days. After the incubation period the slugs were placed on 500 μL PBS in a petri dish. The PBS was sampled every hour and refreshed with 500 μL PBS for 3 hours after the treatment.
The enzymes (LDH, ALP) and the total protein released into the PBS were determined. The change in body weight and the mucus production caused by the treatment were examined.

Benzalkonium chloride
membrane damage (in words) [1]: severe membrane damage
ranking order of increasing toxicity [1]: PBS, 5% HPβCD<1% STDHF<1% SDC and 1% BAC
reduction in body weight to % of the initial weight [1]: about 50%
membrane damage (in words) [2]: severe membrane damage
membrane damage (in words) [3]: severe membrane damage
ranking order of increasing toxicity [3]: PBS, 5% HPβCD<1% STDHF<1% SDC and 1% BAC
reduction in body weight to % of the initial weight [3]: about 50%
% WL, weight loss as reduction in body weight caused by the 15 minutes of treatment ([4]; day 1): 7.17%
% MP, mucus production as % of the body weight at the start of the day before the treatment ([4]; day 1): 3.28%
ALP released into PBS ([4]; day 1): 0.56 U/L
LDH released into PBS ([4]; day 1): 1.92 U/L
Protein released into PBS ([4]; day 1): 8.36 μg/30 μL
% WL, weight loss as reduction in body weight caused by the 15 minutes of treatment ([4]; day 2): 4.32%
% MP, mucus production as % of the body weight at the start of the day before the treatment ([4]; day 2): 2.75%
ALP released into PBS ([4]; day 2): 3.42 U/L
LDH released into PBS ([4]; day 2): 6.27 U/L
Protein released into PBS ([4]; day 2): 4.08 μg/30 μL
% WL, weight loss as reduction in body weight caused by the 15 minutes of treatment ([4]; day 3): 2.87%
% MP, mucus production as % of the body weight at the start of the day before the treatment ([4]; day 3): 2.35%
ALP released into PBS ([4]; day 3): 5.64 U/L
LDH released into PBS ([4]; day 3): 8.11 U/L
Protein released into PBS ([4]; day 3): 11.69 μg/30 μL
% WL, weight loss as reduction in body weight caused by the 15 minutes of treatment ([4]; day 4): 3.61%
% MP, mucus production as % of the body weight at the start of the day before the treatment ([4]; day 4): 3.09%
ALP released into PBS ([4]; day 4): 15.59 U/L
LDH released into PBS ([4]; day 4): 48.65 U/L
Protein released into PBS ([4]; day 4): 11.79 μg/30 μL
